Results: ChEMBL document CHEMBL1201862, “PubChem BioAssay data set” (2004)
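Growth conditions: 96-well plates. Treatment: test compound, 48 hours, 5 concentrations. Analysis: linear interpolation between bracketing concentrations; unreached endpoints set to highest concentration. Here, GI50 denotes the concentration required for 50% inhibition of growth.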 Active and inactive are the calls of the source. Cut-off read from the data, not from the text of the source: active = GI50 up to about 1.1 µM and inactive = higher.

How the values were obtained:
Assay in all cases: growth of human tumour cells (NCI), 48 h
786-0 = test system: 786-0
ACHN = test system: ACHN
BT-549 = test system: BT-549
HOP-62 = test system: HOP-62
IGROV-1 = test system: IGROV-1
M14 = test system: M14
MCF7 = test system: MCF7
MDA-N = test system: MDA-N
Malme-3M = test system: Malme-3M
NCI-H460 = test system: NCI-H460
OVCAR-4 = test system: OVCAR-4
PC-3 = test system: PC-3
RXF 393 = test system: RXF 393
SF-268 = test system: SF-268
SF-539 = test system: SF-539
SK-MEL-28 = test system: SK-MEL-28
SNB-75 = test system: SNB-75
SW-620 = test system: SW-620
TK-10 = test system: TK-10
UACC-257 = test system: UACC-257

SMILES	GI50 (786-0)	GI50 (ACHN)	GI50 (BT-549)	GI50 (HOP-62)	GI50 (IGROV-1)	GI50 (M14)	GI50 (MCF7)	GI50 (MDA-N)	GI50 (Malme-3M)	GI50 (NCI-H460)	GI50 (OVCAR-4)	GI50 (PC-3)	GI50 (RXF 393)	GI50 (SF-268)	GI50 (SF-539)	GI50 (SK-MEL-28)	GI50 (SNB-75)	GI50 (SW-620)	GI50 (TK-10)	GI50 (UACC-257)
O=c1oc2ccc([N+](=O)[O-])cc2c(Nc2ccc3c(c2)Sc2ccccc2O3)c1[N+](=O)[O-]	20.3 µM (inactive)	27 µM (inactive)	24 µM (inactive)	21.3 µM (inactive)	21.6 µM (inactive)	19.4 µM (inactive)	22.1 µM (inactive)	28.6 µM (inactive)	30.7 µM (inactive)	20.2 µM (inactive)	32.3 µM (inactive)	19.5 µM (inactive)	22.4 µM (inactive)	27.5 µM (inactive)	19.8 µM (inactive)	25.9 µM (inactive)	39.6 µM (inactive)	30.3 µM (inactive)	27.4 µM (inactive)	23.2 µM (inactive)
O=C(NNC(=O)c1ccncc1)C(=O)Nc1cc(Cl)c(Cl)cc1Cl	> 100 µM (inactive)	> 100 µM (inactive)	> 100 µM (inactive)	> 100 µM (inactive)	45.6 µM (inactive)	> 100 µM (inactive)	> 100 µM (inactive)	> 100 µM (inactive)	> 100 µM (inactive)	> 100 µM (inactive)	> 100 µM (inactive)	> 100 µM (inactive)	> 100 µM (inactive)	> 100 µM (inactive)	> 100 µM (inactive)	> 100 µM (inactive)	> 100 µM (inactive)	> 100 µM (inactive)	> 100 µM (inactive)	> 100 µM (inactive)
CC1CCC2C(C(=O)O[C@H]3C4C=CO[C@@H](OC5OC(CO)C(O)C(O)C5O)C4[C@@]4(CO)O[C@@H]34)=CO[C@@H](OC3OC(CO)C(O)C(O)C3O)C12 (stereo not given in full)	> 10 µM (inactive)	> 10 µM (inactive)	> 10 µM (inactive)	> 10 µM (inactive)	> 10 µM (inactive)	> 10 µM (inactive)	> 10 µM (inactive)	> 10 µM (inactive)	> 10 µM (inactive)	> 10 µM (inactive)	> 10 µM (inactive)	> 10 µM (inactive)	> 10 µM (inactive)	> 10 µM (inactive)	> 10 µM (inactive)	> 10 µM (inactive)	> 10 µM (inactive)	> 10 µM (inactive)	> 10 µM (inactive)	> 10 µM (inactive)
C=CC(=O)N1C/C(=C\c2ccc(N(C)C)cc2)C(=O)/C(=C/c2ccc(N(C)C)cc2)C1	42.1 µM (inactive)	> 100 µM (inactive)	73.5 µM (inactive)	> 100 µM (inactive)	> 100 µM (inactive)	> 100 µM (inactive)	4.73 µM (inactive)	17.8 µM (inactive)	> 100 µM (inactive)	> 100 µM (inactive)	> 100 µM (inactive)	34 µM (inactive)	43.1 µM (inactive)	67.3 µM (inactive)	26.2 µM (inactive)	> 100 µM (inactive)	> 100 µM (inactive)	40.8 µM (inactive)	> 100 µM (inactive)	> 100 µM (inactive)
C/C=C(/CBr)CCC(Br)C(C)(C)Cl.C/C=C(\CBr)CCC(Br)C(C)(C)Cl (stereo not given)	> 10 µM (inactive)	> 10 µM (inactive)	> 10 µM (inactive)	> 10 µM (inactive)	> 10 µM (inactive)	> 10 µM (inactive)	> 10 µM (inactive)	> 10 µM (inactive)	> 10 µM (inactive)	> 10 µM (inactive)	> 10 µM (inactive)	> 10 µM (inactive)	> 10 µM (inactive)	> 10 µM (inactive)	> 10 µM (inactive)	> 10 µM (inactive)	> 10 µM (inactive)	> 10 µM (inactive)	> 10 µM (inactive)	> 10 µM (inactive)
O=c1c(=O)c2cscc2c1=O	5.22 µM (inactive)	4.69 µM (inactive)	4.85 µM (inactive)	5.15 µM (inactive)	4.66 µM (inactive)	4.94 µM (inactive)	6.24 µM (inactive)	4.99 µM (inactive)	4.39 µM (inactive)	7.76 µM (inactive)	4.99 µM (inactive)	4.58 µM (inactive)	4.74 µM (inactive)	4.4 µM (inactive)	4.95 µM (inactive)	4.53 µM (inactive)	4.32 µM (inactive)	0.989 µM (active)	4.56 µM (inactive)	4.27 µM (inactive)
O=[N+]([O-])c1ccc(NN/N=N/c2ccc(-c3nc4ccccc4[nH]3)cc2)c([N+](=O)[O-])c1	36.3 µM (inactive)	19.4 µM (inactive)	48.3 µM (inactive)	42.6 µM (inactive)	7.33 µM (inactive)	23.1 µM (inactive)	4.27 µM (inactive)	39.9 µM (inactive)	75 µM (inactive)	9.44 µM (inactive)	28.6 µM (inactive)	27.8 µM (inactive)	47.3 µM (inactive)	26.1 µM (inactive)	40.9 µM (inactive)	> 100 µM (inactive)	96.6 µM (inactive)	68.5 µM (inactive)	> 100 µM (inactive)	76.7 µM (inactive)
